Measured values published in patent US8871208B2, “11-β-hydroxysteroid dehydrogenase type 1 (11β-HSD1) inhibitors and uses thereof” (AbbVie Inc., priority 2009, dated 2014).
Where two headings read alike, the source gives them in different places. Marks after values point to notes of the source that are not given here. Values belong to the compound of their own block, whether it stands above or below them.

How the values were obtained:
[1] = target: T1, truncated human 11β-HSD-1 enzyme (24-287AA) (Homo sapiens, UniProt P28845); assay: Human 11β-HSD-1 enzymatic SPA assay; type: biochemical
T1 construct: truncated human 11β-HSD-1 enzyme (24-287AA); made in house; host or cells: E. coli (lysate)
Method: (§1) The ability of test compounds to inhibit human 11β-HSD-1 enzymatic activity in vitro was evaluated in a Scintillation Proximity Assay (SPA). […] The reaction was stopped by adding a non-specific 11β-HSD inhibitor, 18β-glycyrrhetinic acid. The tritiated cortisol was captured by a mixture of an anti-cortisol monoclonal antibody and SPA beads coated with anti-mouse antibodies. The reaction plate was shaken at room temperature and the radioactivity bound to SPA beads was then measured on a β-scintillation counter. The 11β-HSD-1 assay was carried out in 96-well microtiter plates in a total volume of 220 μl. […] In order to drive the reaction in the forward direction, 1 mM G-6-P was also added. Solid compound was dissolved in DMSO to make a 10 mM stock followed by a subsequent 10-fold dilution with 3% DMSO in Tris/EDTA buffer (pH 7.4). 22 μl of titrated compounds was then added in triplicate to the substrate. Reactions were initiated by the addition of 10 μl of 0.1 mg/ml E. coli lysates overexpressing 11β-HSD-1 enzyme. After shaking and incubating plates for 30 minutes at room temperature, reactions were stopped by adding 10 μl of 1 mM glycyrrhetinic acid. The product, tritiated cortisol, was captured by adding 10 μl of 1 μM monoclonal anti-cortisol antibodies and 100 μl SPA beads coated with anti-mouse antibodies. After shaking for 30 minutes, plates were read on a liquid scintillation counter Topcount. Percent inhibition was calculated based on the background and the maximal signal. Wells that contained substrate without compound or enzyme were used as the background, while the wells that contained substrate and enzyme without any compound were considered as maximal signal. Percent of inhibition of each compound was calculated relative to the maximal signal and IC50 curves were generated. This assay was applied to 11β-HSD-2 as well, whereby tritiated cortisol and NAD^+ were used as substrate and cofactor, respectively.

human 11β-HSD-2 = target: T2, human 11β-HSD-2 (Homo sapiens, UniProt P80365); assay: Human 11β-HSD-2 enzymatic SPA assay; type: biochemical; settings: human enzyme, SPA
T2 sequence (P80365 1-405): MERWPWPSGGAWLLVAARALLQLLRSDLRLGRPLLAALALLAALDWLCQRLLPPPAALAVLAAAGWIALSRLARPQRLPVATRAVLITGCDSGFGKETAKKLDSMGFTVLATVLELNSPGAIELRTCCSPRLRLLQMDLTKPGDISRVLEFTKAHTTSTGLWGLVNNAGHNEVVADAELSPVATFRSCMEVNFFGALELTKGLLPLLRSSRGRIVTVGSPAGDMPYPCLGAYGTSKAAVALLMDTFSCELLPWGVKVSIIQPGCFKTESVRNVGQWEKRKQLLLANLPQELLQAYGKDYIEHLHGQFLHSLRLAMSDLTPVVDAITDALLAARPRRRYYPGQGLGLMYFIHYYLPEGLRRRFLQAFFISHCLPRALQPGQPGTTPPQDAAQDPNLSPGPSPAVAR
Method: as §1

TNFα = assay: Mouse model of glucocorticoid-induced osteoporosis: LPS-induced TNFα; type: in vivo; settings: mice, LPS 0.1 mg/kg challenge, diet with Compound B
From the text: (§2) Purpose: The purpose of this experiment was to determine if inhibiting 11β-HSD-1 in mice results in protection from prednisolone-induced bone loss over a 28-day period, while maintaining the same anti-inflammatory efficacy against lipopolysaccharide(LPS)-induced TNFα.
(§3) Animals: Female Swiss Webster mice from Charles River Laboratories (CFW mice) were used in this study. Mice were 10 weeks old at the start of the study. Two identical prednisolone dose responses were run with a vehicle control (n=12), 5, 1.5, and 0.5 mg/kg dosed for 28 days (n=8 each), and 1.5 mg/kg dosed for 27 days (n=8, to determine if prednisolone needed to be on board to affect tumor necrosis factor-alpha(TNFα), procollagen type 1 N-terminal propeptide(P1NP), and Osteocalcin). […] The total number of animals used was 88.
(§4) Experimental Design: All animals were placed on the control diet (Research Diets Rodent Diet with 60 kcal % Fat: D12492i) upon arrival. […] Also on this day, animals were weighed for baselines and ear-tagged for identification. On day 1 of the study, all animals were injected intraperitoneally (i.p.) with 10 mg/kg of calcein (Sigma #C0875) in 2% sodium bicarbonate (Sigma #S6014, dissolved in deionized water). […] On day 27, 4 animals from each vehicle control group were challenged with 5 mg/kg of 11-dehydrocorticosterone (11-DHC [Steraloids #Q3690-000]) p.o., and plasma was collected 30 minutes later for corticosterone analysis by mass spec. […] Thirty minutes later, all groups were challenged with 0.1 mg/kg of LPS (Sigma #L4130) to induce TNFα. […] Right leg bones, left leg bones, and the spinal columns of all mice were collected and stored as follows:
TNFα was measured using the Mouse […] Quantikine ELISA kit from R&D Systems. The protocol was followed as outlined in the kit. Samples were read using a Molecular Devices Spectra Max 250 plate reader and Soft Max Pro 4.8 software.

Osteocalcin = assay: Mouse model of glucocorticoid-induced osteoporosis: plasma osteocalcin; type: in vivo; settings: mice, diet with Compound B
From the text: as §2, §3, §4
Osteocalcin was measured using the Millipore Milliplex Mouse Osteocalcin Single-Plex Kit. The protocol was followed exactly as outlined in the kit. Samples were read on a BioRad Bio-Plex System, model # Luminex 100 and Bio-Plex Manager 4.1.1 software.

[2] = test system: Trabecular bone at Femoral Metaphysis; assay: Mouse model of glucocorticoid-induced osteoporosis: femur histomorphometry; type: in vivo; settings: mice, diet with Compound B
From the text: as §2, §3, §4
Left leg bones were removed, cleaned, and cut identically to the right leg bones. However, left legs were separated at the knee joint by carefully teasing apart with a scalpel.
Femurs were fixed in 4% paraformaldehyde for 48 hours, and transferred to 30% sucrose for 24 hours before embedding in a CMC (carboxymethylcellulose) block. Blocks were frozen in liquid nitrogen-cooled hexanes (−60° C. or colder) for 3-5 minutes, and stored at −80° C. Femurs were then sectioned on a cryomicrotome.
Bone was measured from 8-10 fields per femur, with each field being 400×500 microns in size. All dynamic measurement calculations were made from scoring the second and third fluorochrome labels, which were administered 11 days apart. OsteoMeasure software was used to obtain all values.
Bone formation rate/bone volume (BFR/BV) refers to the volume of new bone formed per unit of time, and is measured as a percent per day. BFR is the most significant measure of bone formation.
Mineral apposition rate (MAR) refers to the distance between two fluorochrome labels divided by the number of days between label administration, and is indicative of osteoblastic activity.
Double labeled surface/bone surface (dLS/BS) refers to the percentage of trabecular bone surface which is double-labeled, and is another readout indicative of bone formation.

[3] = test system: P1NP (N-terminal propeptide of type I procollagen); assay: Mouse model of glucocorticoid-induced osteoporosis: plasma P1NP; type: in vivo; settings: mice, diet with 873 mg Compound B/kg
From the text: as §2, §3, §4
N-terminal propeptide of type I procollagen (PINP) was measured using the Rat/Mouse PINP EIA kit from Immunodiagnostic Systems. The protocol was followed as outlined in the kit, except for that sample dilutions were made in a separate plate instead of directly in the ELISA plate. Samples were read using a Molecular Devices Spectra Max 190 plate reader and Soft Max Pro 5.2 software.

[4] = test system: markers of bone resorption; settings: bone samples, healthy human volunteers, orally dosed; cited from earlier work
insulin sensitivity = settings: humans; cited from earlier work
[5] = test system: inflammation, tissue destruction, bone erosion; settings: animal models of RA; cited from earlier work
[6] = prednisolone 5 mg/kg, p < 0.05 vs. (−) inhibitor
[7] = prednisolone 0.5 mg/kg, p < 0.05 vs. vehicle control

T1 sequence (P28845 24-287): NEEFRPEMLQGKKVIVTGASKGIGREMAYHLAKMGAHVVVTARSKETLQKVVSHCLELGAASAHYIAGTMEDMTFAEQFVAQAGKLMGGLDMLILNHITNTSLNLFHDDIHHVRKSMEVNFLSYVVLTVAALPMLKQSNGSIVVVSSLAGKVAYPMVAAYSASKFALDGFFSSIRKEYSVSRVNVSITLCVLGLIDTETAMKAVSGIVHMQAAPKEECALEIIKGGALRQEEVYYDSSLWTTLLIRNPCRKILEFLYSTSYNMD

IC50 ([1]; human enzyme, SPA): 35 nM
IC50 (human 11β-HSD-2): > 30000 nM
SMILES: CC(C)(C(=O)NC1C2CC3CC1CC(C(N)=O)(C3)C2)N1CCN(c2cnccn2)CC1 (centres unmarked) [(E)-4-{[2-methyl-2-(4-pyrazin-2-ylpiperazin-1-yl)propanoyl]amino}adamantane-1-carboxamide]

IC50 ([1]; human enzyme, SPA): 37 nM
IC50 (human 11β-HSD-2): > 30000 nM
SMILES: CC(C)(C(=O)N[C@@H]1[C@@H]2C[C@@H]3C[C@H]1C[C@@](C(N)=O)(C3)C2)N1CCN(c2ccccn2)CC1 [(E)-4-{[2-methyl-2-(4-pyridin-2-ylpiperazin-1-yl)propanoyl]amino}adamantane-1-carboxamide]

IC50 [1]: 140 nM
IC50 (human 11β-HSD-2): > 10000 nM
SMILES: O=C(CN1CCN(c2ccc(C(F)(F)F)cn2)CC1)NC1C2CC3CC1CC(F)(C3)C2 (centres unmarked) [N-[(E)-5-fluoro-2-adamantyl]-2-{4-[5-(trifluoromethyl)pyridin-2-yl]piperazin-1-yl}acetamide]

IC50 ([1]; human enzyme, SPA): 67 nM
IC50 (human 11β-HSD-2): > 30000 nM
SMILES: CC(C(=O)NC1C2CC3CC1CC(NS(C)(=O)=O)(C3)C2)N1CCN(c2ccc(C(F)(F)F)cn2)CC1 (centres unmarked) [N-{(E)-5-[(methylsulfonyl)amino]-2-adamantyl}-2-{4-[5-(trifluoromethyl)pyridin-2-yl]piperazin-1-yl}propanamide]

IC50 [1]: 82 nM
IC50 (human 11β-HSD-2): > 10000 nM
SMILES: O=C(CN1CCN(c2ccc(C(F)(F)F)cn2)CC1)N[C@H]1[C@@H]2C[C@@H]3C[C@H]1C[C@@](F)(C3)C2 [N—[(Z)-5-fluoro-2-adamantyl]-2-{4-[5-(trifluoromethyl)pyridin-2-yl]piperazin-1-yl}acetamide]

IC50 ([1]; human enzyme, SPA): 80 nM
IC50 (human 11β-HSD-2): > 10000 nM
SMILES: CC(C)(C(=O)N[C@@H]1[C@@H]2C[C@@H]3C[C@H]1C[C@@](CC(=O)O)(C3)C2)N1CCN(c2ccc(C(F)(F)F)cn2)CC1 [{(E)-4-[(2-methyl-2-{4-[5-(trifluoromethyl)pyridin-2-yl]piperazin-1-yl}propanoyl)amino]-1-adamantyl}acetic acid]

Second part, the compound before the results:

SMILES: CC(C)(Oc1ccc(F)cc1Cl)C(=O)NC1C2CC3CC1CC(S(C)(=O)=O)(C3)C2 (centres unmarked) [Compound B, 2-(2-chloro-4-fluorophenoxy)-2-methyl-N-[(E)-5-(methylsulfonyl)-2-adamantyl]propanamide]
% Inhibition of TNFα, (+) Inhibitor (TNFα; prednisolone 0.5 mg/kg): 80%
% Inhibition of TNFα, (+) Inhibitor (TNFα; prednisolone 5 mg/kg): 98%
% Inhibition of TNFα, (+) Inhibitor (TNFα; prednisolone […]): 94%
% Inhibition of Osteocalcin, (+) Inhibitor (Osteocalcin; prednisolone 0.5 mg/kg): 18%
% Inhibition of Osteocalcin, (+) Inhibitor (Osteocalcin; [6]): 28%*
% Inhibition of MAR, (+) Inhibitor ([2]; prednisolone 0.5 mg/kg): 9%
% Increase in BFR/BV, (+) Inhibitor [2, 7]: 47%^#
% Increase in dLS/BS, (+) Inhibitor [2, 7]: 22%^#
% Inhibition of MAR, (+) Inhibitor ([2]; prednisolone 5 mg/kg): 23%
% Increase in BFR/BV, (+) Inhibitor [2, 6]: 30%*
% Increase in dLS/BS, (+) Inhibitor ([2]; prednisolone 5 mg/kg, p < 0.05 vs. vehicle control): 46%^#
% Inhibition of P1NP, (+) Inhibitor ([3]; prednisolone 0.5 mg/kg p.o. daily 28 days): 25%
% Inhibition of P1NP, (+) Inhibitor ([3]; prednisolone […] p.o. daily 28 days): 28%

SMILES: CC(C)(Oc1ccc(Cl)cc1)C(=O)N[C@@H]1[C@@H]2C[C@@H]3C[C@H]1C[C@@](CC(N)=O)(C3)C2 [N-[(E)-5-(2-amino-2-oxoethyl)-2-adamantyl]-2-(4-chlorophenoxy)-2-methylpropanamide]
IC50 ([1]; human enzyme, SPA): 43 nM
IC50 (human 11β-HSD-2): 21000 nM

SMILES: CC(C)(Oc1ccc(F)cc1Cl)C(=O)N[C@@H]1[C@@H]2C[C@@H]3C[C@H]1C[C@@](S(N)(=O)=O)(C3)C2 [N-[(E)-5-(aminosulfonyl)-2-adamantyl]-2-(2-chloro-4-fluorophenoxy)-2-methyl-propanamide]
IC50 ([1]; human enzyme, SPA): 89 nM
IC50 (human 11β-HSD-2): > 100000 nM

SMILES: CC1(C)[C@@H](OC(=O)CCC(=O)O)CC[C@]2(C)[C@H]3C(=O)C=C4[C@@H]5C[C@@](C)(C(=O)O)CC[C@]5(C)CC[C@@]4(C)[C@]3(C)CC[C@@H]12 [carbenoxolone]
markers of bone resorption [4]: significant decrease in markers of bone resorption
insulin sensitivity (insulin sensitivity): improves insulin sensitivity

SMILES: CC1(C)[C@@H](O)CC[C@]2(C)[C@H]3C(=O)C=C4[C@@H]5C[C@@](C)(C(=O)O)CC[C@]5(C)CC[C@@]4(C)[C@]3(C)CC[C@@H]12 [glycyrrhetinic acid]
effect on inflammation, tissue destruction and bone erosion [5]: reduced inflammation and tissue destruction as well as bone erosion
